Structures are written as SMILES.

The data set is described as follows: gradient 5% acetonitrile 3 min, to 50% in 2 min, to 85% in 15 min, held 3 min, 100 µL/min. As to conditions: column: Zorbax Extend-C18 2.1 x 50 mm; eluents: water / acetonitrile, 0.1% formic acid. The essentials:
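Values are retention times taken from adduct peaks that software picked and an analyst inspected. The pure standards were run as mixtures of ~100 molecules on HPLC linked to a quadrupole time-of-flight mass spectrometer, in positive and negative ionization mode. A Zorbax Extend-C18 column (2.1 × 50 mm, 1.8 μm) was used at 100 μL/min with water and acetonitrile, each including 0.1% formic acid.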
For `CCN(CC)S(=O)(=O)c1ccc2c(c1)CC(C(=O)N1CCCCC1)N2C(C)=O` (centres undefined), the RP-LC retention time came to 804 s. For `O=C(CN1C(=O)COc2ccccc21)N1CCSCC1`, the RP-LC retention time is 712 s.

Compound `CC(NC(=O)c1ccc2c(c1)OCO2)C(=O)Nc1nc2ccccc2[nH]1` (centres undefined) yielded an RP-LC retention time of 623 s.

`Cc1ccc(NC(=O)C2CCN(S(=O)(=O)c3cc(C(=O)N(C)C)cs3)CC2)cc1F` had an RP-LC retention time of 847 s. To `CCN1c2ccc(F)cc2C(=O)NC12CCN(C(=O)c1cccc(F)c1)CC2` belongs 791 s.

For the compound `O=C(Cn1nc(C(=O)N2CCCC2)c2ccccc21)N1CCN(Cc2ccc3c(c2)OCO3)CC1`, the RP-LC retention time worked out at 622 s. Take `CCc1noc(-c2ccc(-n3cnc(C(=O)N(C)C4CCCCC4)c3)nc2)n1`: the RP-LC retention time was 944 s. In the case of `Cc1cc(C)cc(C(=O)Nc2ccc(N3CCN(c4ccccc4)C3=O)nc2)c1`, the RP-LC retention time came out at 1050 s. Regarding `O=C(Nc1onc2c1CSC2)c1cccc(-n2cnnn2)c1`, the RP-LC retention time came to 647 s.

For the compound `O=C(NCc1cccs1)c1cccn1Cc1noc(-c2ccccc2)n1`, the RP-LC retention time was determined as 972 s. Consider `O=S(=O)(c1c[nH]c2ncccc12)N1CCc2ccccc21`, for which the RP-LC retention time was found to be 763 s. `O=S(=O)(Nc1ccc(Oc2nc3ccccc3n3cnnc23)cc1)c1cccc2nsnc12` came in with an RP-LC retention time of 755 s. `CCCCC(=O)Nc1nc(-c2ccc3c(c2)N(CC)C(=O)CO3)cs1` yielded an RP-LC retention time of 932 s. As for `CCN1CCC(N(Cc2cccs2)C(=O)Nc2cc(OC)c(OC)c(OC)c2)CC1`, the RP-LC retention time amounted to 628 s. Consider `CCOC(=O)c1nc(N2CCN(c3ccccc3F)CC2)c2c(C)noc2n1`, for which the RP-LC retention time stood at 1010 s.

In the case of `Cc1nn(-c2ccccc2)c(C)c1S(=O)(=O)N1CCC(C(=O)Nc2ccc3c(c2)OCO3)CC1`, the RP-LC retention time is 905 s.

`CCOC(=O)c1cc(C2CC2)nc2c1c(=O)n(Cc1ccc(Cl)cc1)c(=O)n2C` came in with an RP-LC retention time of 1260 s. To `Cn1nc2n(c1=O)CCN(S(=O)(=O)c1ccc(C#N)cc1)CC2` belongs 655 s; to `CC1Cc2ccccc2N1C(=O)c1ccc(=O)n(CCC(=O)N2CCN(C3CCCCC3)CC2)n1` (centres undefined), 654 s.

Compound `Cc1ccc(-c2nc3n(CC(=O)N4CCCCC4C)c4c(c(=O)n3n2)CCC4)cc1` (centres undefined) came in with an RP-LC retention time of 1040 s. Turning to `O=C(Nc1ccc2c(c1)OCO2)c1coc(NC(=O)c2ccco2)n1`, the RP-LC retention time came to 651 s. Compound `Cc1nc(NCCNC(=O)c2snnc2C)cc(-n2cccn2)n1` gave an RP-LC retention time of 627 s.

In the case of `Cc1ccc(NS(=O)(=O)c2cc(-c3cc(C(F)(F)F)on3)sc2C)c(C)c1`, the RP-LC retention time turned out to be 1230 s.

Take `CC(=O)N(C1CCOCC1)C1CCN(C(=O)Nc2cc(F)c(F)c(F)c2)CC1`: the RP-LC retention time was found to be 747 s.

`O=[N+]([O-])c1ccc(-c2nc(N3CCOCC3)c3ccccc3n2)cc1` returned an RP-LC retention time of 833 s. `COc1ccc(Cl)cc1S(=O)(=O)N1CCC2(CC1)c1nccn1CCN2C` displayed an RP-LC retention time of 646 s. To `Cc1coc2c(C)c3oc(=O)c(CCC(=O)N4CCN(c5ccccn5)CC4)c(C)c3cc12` belongs 795 s; to `COc1cccc(-c2nnc(Cc3nc(-c4cccc(C(F)(F)F)c4)no3)o2)c1`, 1100 s; to `Cc1ccc(-n2cc(C(=O)OCC(=O)OC(C)(C)C)c3ccccc3c2=O)cc1`, 1210 s. Compound `CCCc1cc(N2CCN(c3ccccn3)CC2)n2nc(C)c(-c3ccccc3)c2n1` came in with an RP-LC retention time of 758 s. In turn, `O=C(O)c1ccccc1-n1c2ccccc2c2ccccc21` showed an RP-LC retention time of 1050 s. `CCC1(C(=O)Nc2cc(OC)ccc2OC)CCCCC(=O)N1` (centres undefined) yielded an RP-LC retention time of 722 s. The compound `CCOC(=O)c1oc2ccc(S(=O)(=O)NCC3Cn4cccc4C(=O)N3C)cc2c1C` (centres undefined) had an RP-LC retention time of 810 s. For `Cc1cc(N2CCCC2)nc(N2CCN(C(=O)C3CCCC3)CC2)n1`, the RP-LC retention time is 670 s. Take `Cc1cc(C(=O)N2CCCCC2)c2c(=O)n(Cc3nc(-c4ccccc4)oc3C)c(=O)n(C)c2n1`: the RP-LC retention time was 1020 s. Regarding `Cc1cc(C(=O)NCCCC(=O)Nc2cccc3cccnc23)c(C)o1`, the RP-LC retention time was found to be 728 s. The same measure for `Cc1cc(-c2nnc(-c3ccc(F)cc3)o2)c(C)n1CC(=O)NCc1cccnc1`: 637 s; for `O=C1NCCCn2cc(S(=O)(=O)N3CCCCCC3)cc21`: 661 s; for `CCc1cccc(C)c1NC(=O)Cn1ncc2c(N3CCN(c4ccccn4)CC3)ncnc21`: 570 s. `CN(C)CCNCc1ccc(-c2cc(Cl)ccc2Cl)o1`: the RP-LC retention time is 578 s.

Turning to `O=C(Nc1ccccc1)C1CCCN(S(=O)(=O)Cc2ccccc2Cl)C1` (centres undefined), the RP-LC retention time amounted to 976 s.

`Cc1ncsc1C1N(C2CCN(C(=O)c3cnccn3)CC2)C(=O)C12CCCC2` (centres undefined) gave an RP-LC retention time of 654 s. Turning to `COc1ccc(OC)c(-c2nnc(SCC(=O)Nc3nccs3)o2)c1`, the RP-LC retention time came to 693 s. Regarding `CCCn1c(=O)sc2cc(S(=O)(=O)N3CCC(C(=O)N4CCN(CC)CC4)CC3)ccc21`, the RP-LC retention time turned out to be 640 s. Compound `O=C(CN1CCCCC1c1nc(-c2cccc(F)c2)no1)Nc1cccc(F)c1` (centres undefined) displayed an RP-LC retention time of 967 s. On to `O=C(c1ccc(CS(=O)(=O)c2ccc(Br)cc2)o1)N1CCN(c2ccccn2)CC1`, for which the RP-LC retention time was 616 s. In the case of `COc1ccc(S(=O)(=O)N2CCC(n3cnc4c(C)cccc4c3=O)CC2)cc1OC`, the RP-LC retention time came to 881 s. The compound `CCN1C(=O)c2cccnc2Sc2cc(NC(=O)c3c(F)cccc3F)ccc21` displayed an RP-LC retention time of 808 s. For `COc1ccc(-c2ccc(=O)n(Cc3nc(-c4ccccc4)no3)n2)cc1`, the RP-LC retention time turned out to be 954 s. On to `Cc1ccc(NC(=O)C2CCCN(c3nnc4cccc(C)n34)C2)cc1F` (centres undefined), for which the RP-LC retention time amounted to 753 s. In the case of `COc1ccc(-c2noc(C3CCCN3C(=O)c3ccccc3OC)n2)cc1` (centres undefined), the RP-LC retention time is 901 s. To `CCC(=O)N1CCc2c(sc3ncnc(NCCc4ccccc4)c23)C1` belongs 834 s. The same measure for `CC(=O)N1CCC(C2CCN(C(=O)C3CC=CC3)C2)CC1` (centres undefined): 664 s.

`COc1ccc2c(C)c(CC(=O)N3CCC(C(N)=O)CC3)c(=O)oc2c1OC` returned an RP-LC retention time of 622 s.

Compound `COc1cc(-c2nnc(C)o2)ccc1C` had an RP-LC retention time of 828 s. Regarding `Cc1nnc2n1CCN(C(=O)Cc1c(F)cccc1Cl)C2`, the RP-LC retention time is 616 s. In the case of `COc1ccccc1-c1nc(-c2cn(Cc3ccc(F)cc3)nn2)no1`, the RP-LC retention time worked out at 927 s.

`COc1cc2c(cc1CC=C(C)C)C(=O)C[C@@H](c1ccc(O)cc1)O2`: the RP-LC retention time is 1190 s. `Cc1ccc(-n2nnc(C(=O)O)c2-c2ccncc2)cc1` registered an RP-LC retention time of 636 s. Compound `COc1ccc(C2c3sc(=O)[nH]c3SC3C(=O)N(CC(=O)O)C(=O)C32)cc1` (centres undefined) returned an RP-LC retention time of 632 s. Turning to `COc1ccc(NC(=O)N2CCC(c3noc(-c4cccnc4)n3)C2)cc1` (centres undefined), the RP-LC retention time worked out at 690 s. To `COc1ccc(NC(=O)CSc2nccnc2-n2nc(C)cc2C)cc1OC` belongs 702 s; to `Cc1ccc(NS(=O)(=O)c2c(C)c(-c3nnc(C4CCC4)o3)n(C)c2C)cc1`, 918 s. `Cc1ccc(F)cc1NC(=O)Cn1nc(N2CCC(C)CC2)c2ccccc2c1=O`: the RP-LC retention time stood at 1180 s.

Turning to `COc1ccc2c(=O)oc3c(OC)cc(CCN(C)C)c4c(=O)oc1c2c34`, the RP-LC retention time turned out to be 689 s. Consider `CSc1ccccc1NC(=O)C(=O)NN1CCN(C)CC1`, for which the RP-LC retention time was 559 s. The same measure for `Cc1ccc(C)c(N2CCN(C(=O)C3CCCN(C(=O)c4[nH]c(C)cc4C)C3)CC2)c1` (centres undefined): 1010 s; for `CCN1C(=O)c2cccnc2Sc2cc(CNC(=O)c3cccnc3SC)ccc21`: 721 s. As for `CCn1cc2c3c(cccc31)CN(C(=O)Nc1ccc(Cl)cc1F)CC2`, the RP-LC retention time turned out to be 1050 s.

`Cc1ccc(C(C)NC(=O)C2CCN(c3nccnc3Oc3ccccc3)CC2)c(C)c1` (centres undefined) had an RP-LC retention time of 1090 s.

Consider `CCCCOc1ccc(C(=O)NC2(c3nc(-c4cccnc4)no3)CCCCC2)cc1`, for which the RP-LC retention time was 1170 s. To `CN1CCN(C(=O)c2ccc(-c3nnc4ccc(NC(=O)C5CCC5)cn34)cc2)CC1` belongs 587 s; to `Cc1noc(C)c1CCNC(=O)c1ccc2nc(Cc3ccccc3)oc2c1`, 830 s. Take `COc1cccc(-c2ccc(=O)n(Cc3nc(-c4cccc(OC)c4)no3)n2)c1`: the RP-LC retention time was 682 s. As for `Cc1noc(C2CN(CCc3ccccc3)CC23CCCC3)n1` (centres undefined), the RP-LC retention time was found to be 674 s. `O=C(O)c1ccccc1Nc1cccc2c1C(=O)c1cccc(Nc3ccccc3C(=O)O)c1C2=O` yielded an RP-LC retention time of 1020 s. To `CSc1ccc(CNC(=O)CCCn2nc(-n3cccc3)c3c(C)cc(C)nc32)cc1` belongs 1030 s; to `Cn1cccc1C(=O)N1CCC(COc2ccc(C(=O)N3CCCCC3)cc2)CC1`, 897 s. Regarding `CN(C)CCc1c[nH]c2ccc(CS(=O)(=O)N3CCCC3)cc12`, the RP-LC retention time amounted to 629 s.
